Source: US11319315B2, “Cyclohexyl acid triazole azoles as LPA antagonists” (BRISTOL-MYERS SQUIBB COMPANY, priority 2017, dated 2022)

Each compound was assayed against T1, human LPA1 (Homo sapiens, UniProt Q92633) (assay: LPA1 functional antagonist assay (LPA-induced calcium flux in CHO cells overexpressing human LPA1)). Details: inhibition of calcium flux induced by 10 nM LPA, CHO cells overexpressing human LPA1; read-out: hLPA1 IC50.
T1 construct: expressed in transfected cells; host or cells: Chinese hamster ovary (CHO) cells
Format: cell-based
Procedure: The effectiveness of compounds of the present invention as LPA1 inhibitors can be determined in an LPA1 functional antagonist assay as follows:
Chinese hamster ovary cells overexpressing human LPA1 were plated overnight (15,000 cells/well) in poly-D-lysine coated 384-well microplates (Greiner bio-one, Cat #781946) in DMEM/F12 medium (Gibco, Cat #11039). Following overnight culture, cells were loaded with calcium indicator dye (AAT Bioquest Inc, Cat #34601) for 30 minutes at 37° C. The cells were then equilibrated to room temperature for 30 minutes before the assay. Test compounds solubilized in DMSO were transferred to 384 well non-binding surface plates (Corning, Cat #3575) using the Labcyte Echo acoustic dispense and diluted with assay buffer [IX HBSS with calcium/magnesium (Gibco Cat #14025-092), 20 mM HEPES (Gibco Cat #15630-080) and 0.1% fatty acid free BSA (Sigma Cat #A9205)] to a final concentration of 0.5% DMSO. Diluted compounds were added to the cells by FDSS6000 (Hamamatsu) at final concentrations ranging from 0.08 nM to 5 μM. and were then incubated for 20 min at room temperature at which time LPA (Avanti Polar Lipids Cat #857130C) was added at final concentrations of 10 nM to stimulate the cells. The compound IC50 value was defined as the concentration of test compound which inhibited 50% of the calcium flux induced by LPA alone. IC50 values were determined by fitting data to a 4-parameter logistic equation (GraphPad Prism, San Diego Calif.).

T1 sequence (Q92633 whole entry): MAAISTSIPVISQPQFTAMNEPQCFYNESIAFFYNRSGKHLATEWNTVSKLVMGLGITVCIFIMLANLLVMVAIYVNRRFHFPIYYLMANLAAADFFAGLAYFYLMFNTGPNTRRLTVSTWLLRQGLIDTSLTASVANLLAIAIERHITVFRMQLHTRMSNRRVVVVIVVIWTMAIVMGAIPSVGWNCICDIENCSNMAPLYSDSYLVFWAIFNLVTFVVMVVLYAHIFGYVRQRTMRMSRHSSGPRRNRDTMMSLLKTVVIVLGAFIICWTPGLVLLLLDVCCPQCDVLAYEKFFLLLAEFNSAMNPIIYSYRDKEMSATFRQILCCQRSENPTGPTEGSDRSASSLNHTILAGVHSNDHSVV

Row | SMILES | IC50
1 | CCCCc1nnc(NCc2c(-c3ccc(O[C@H]4CCC[C@H](C(=O)O)C4)c(C)n3)nnn2C)o1 [Example 53] | 297 nM
2 | Cc1nc(-c2nnn(C)c2CNc2nnc(CC(C)C)o2)ccc1O[C@H]1CCC[C@H](C(=O)O)C1 [Example 54] | 191 nM
3 | Cc1nc(-c2nnn(C)c2CNc2nnc(CCC(C)C)o2)ccc1O[C@H]1CCC[C@H](C(=O)O)C1 [Example 55] | 45 nM
4 | Cc1nc(-c2nnn(C)c2CNc2nnc(CC3CC3)o2)ccc1O[C@H]1CCC[C@H](C(=O)O)C1 [Example 56] | 136 nM
5 | Cc1nc(-c2nnn(C)c2CNc2nnc(C3CCCCC3)o2)ccc1O[C@H]1CCC[C@H](C(=O)O)C1 [Example 57] | 204 nM
6 | Cc1nc(-c2nnn(C)c2CNc2nc(C3CC3)no2)ccc1O[C@H]1CCC[C@H](C(=O)O)C1 [Example 58] | 316 nM
7 | Cc1nc(-c2nnn(C)c2CNc2nc(C(C)C)no2)ccc1O[C@H]1CCC[C@H](C(=O)O)C1 [Example 59] | 495 nM
8 | Cc1nc(-c2nnn(C)c2CNc2nc(C(C)(C)C)no2)ccc1O[C@H]1CCC[C@H](C(=O)O)C1 [Example 60] | 478 nM
9 | Cc1nc(-c2nnn(C)c2CNc2nc(-c3ccccc3)no2)ccc1O[C@H]1CCC[C@H](C(=O)O)C1 [Example 61] | 26 nM
10 | Cc1nc(-c2nnn(C)c2CNc2nc(C3CCCC3)no2)ccc1O[C@H]1CCC[C@H](C(=O)O)C1 [Example 62] | 43 nM
11 | Cc1nc(-c2nnn(C)c2CNc2nc(Cc3ccccc3)no2)ccc1O[C@H]1CCC[C@H](C(=O)O)C1 [Example 63] | 38 nM
12 | Cc1nc(-c2nnn(C)c2CNc2nc(CC3CC3)no2)ccc1O[C@H]1CCC[C@H](C(=O)O)C1 [Example 64] | 105 nM
13 | Cc1nc(-c2nnn(C)c2CNc2noc(-c3ccccc3)n2)ccc1O[C@H]1CCC[C@H](C(=O)O)C1 [Example 65] | 23 nM
14 | CCCCc1nc(NCc2c(-c3ccc(O[C@H]4CCC[C@H](C(=O)O)C4)c(C)n3)nnn2C)no1 [Example 66] | 15 nM
15 | Cc1nc(-c2nnn(C)c2CNc2noc(Cc3ccccc3)n2)ccc1O[C@H]1CCC[C@H](C(=O)O)C1 [Example 67] | 14 nM
16 | CCCc1nc(NCc2c(-c3ccc(O[C@H]4CCC[C@H](C(=O)O)C4)c(C)n3)nnn2C)no1 [Example 68] | 42 nM
17 | Cc1nc(-c2nnn(C)c2CNc2noc(CCC(C)C)n2)ccc1O[C@H]1CCC[C@H](C(=O)O)C1 [Example 69] | 15 nM
18 | Cc1nc(-c2nnn(C)c2CNc2noc(CC(C)C)n2)ccc1O[C@H]1CCC[C@H](C(=O)O)C1 [Example 71] | 33 nM
19 | Cc1nc(-c2nnn(C)c2CNc2noc(CC3CCC3)n2)ccc1O[C@H]1CCC[C@H](C(=O)O)C1 [Example 72] | 4 nM
20 | Cc1nc(-c2nnn(C)c2Cc2nnc(Cc3ccccc3)o2)ccc1O[C@H]1CCC[C@H](C(=O)O)C1 [Example 73, (1 S,3 S)-3-((6-(5-((5-benzyl-1,3,4-oxadiazol-2-yl)methyl)-1-methyl-1H-1,2,3-triazol-4-yl)-2-methylpyridin-3-yl)oxy)cyclohexane-1-carboxylic acid] | 55 nM
21 | CCCCc1nnc(Cc2c(-c3ccc(O[C@H]4CCC[C@H](C(=O)O)C4)c(C)n3)nnn2C)o1 [Example 74] | 227 nM
22 | Cc1nc(-c2nnn(C)c2Cc2nnc(C3CCCC3)o2)ccc1O[C@H]1CCC[C@H](C(=O)O)C1 [Example 75] | 289 nM
23 | Cc1nc(-c2nnn(C)c2Cc2nnc(-c3ccccc3)o2)ccc1O[C@H]1CCC[C@H](C(=O)O)C1 [Example 76] | 290 nM
24 | Cc1nc(-c2nnn(C)c2Cc2nnc(Cc3ccc(F)cc3)o2)ccc1O[C@H]1CCC[C@H](C(=O)O)C1 [Example 77] | 260 nM
25 | Cc1nc(-c2nnn(C)c2C(O)c2cn(Cc3ccccc3)nn2)ccc1O[C@H]1CCC[C@H](C(=O)O)C1 (stereo partly drawn) [Example 78, (1 S,3 S)-3-((6-(5-((1-benzyl-1H-1,2,3-triazol-4-yl)(hydroxy)methyl)-1-methyl-1H-1,2,3-triazol-4-yl)-2-methylpyridin-3-yl)oxy)cyclohexane-1-carboxylic acid] | 88 nM
26 | CCCCc1cn(Cc2c(-c3ccc(O[C@H]4CCC[C@H](C(=O)O)C4)c(C)n3)nnn2C)nn1 [Example 79, (1 S,3 S)-3-((6-(5-((4-butyl-1H-1,2,3-triazol-1-yl)methyl)-1-methyl-1H-1,2,3-triazol-4-yl)-2-methylpyridin-3-yl)oxy)cyclohexane-1-carboxylic acid] | 44 nM
27 | Cc1nc(-c2nnn(C)c2Cn2cc(Cc3ccccc3)cn2)ccc1O[C@H]1CCC[C@H](C(=O)O)C1 [Example 80, (1 S,3 S)-3-((6-(5-((4-benzyl-1H-pyrazol-1-yl)methyl)-1-methyl-1H-1,2,3-triazol-4-yl)-2-methylpyridin-3-yl)oxy)cyclohexane-1-carboxylic acid] | 15 nM

Row | SMILES | IC50
28 | Cc1nc(-c2nnn(C)c2Cn2cc(Cc3ccccc3)nn2)ccc1O[C@H]1CCC[C@H](C(=O)O)C1 [Example 81] | 37 nM
29 | Cc1nc(-c2nnn(C)c2Cn2cc(C(C)C)nn2)ccc1O[C@H]1CCC[C@H](C(=O)O)C1 [Example 82] | 821 nM
30 | Cc1nc(-c2nnn(C)c2Cn2cc(COc3ccccc3)nn2)ccc1O[C@H]1CCC[C@H](C(=O)O)C1 [Example 83] | 135 nM
31 | Cc1nc(-c2nnn(C)c2Cn2nncc2COc2ccccc2)ccc1O[C@H]1CCC[C@H](C(=O)O)C1 [Example 84] | 172 nM
32 | Cc1nc(-c2nnn(C)c2Cn2cc(C(=O)c3ccccc3)nn2)ccc1O[C@H]1CCC[C@H](C(=O)O)C1 [Example 85] | 241 nM
33 | CCCc1cn(Cc2c(-c3ccc(O[C@H]4CCC[C@H](C(=O)O)C4)c(C)n3)nnn2C)nn1 [Example 86] | 187 nM
34 | Cc1nc(-c2nnn(C)c2Cn2cc(C(O)c3ccccc3)nn2)ccc1O[C@H]1CCC[C@H](C(=O)O)C1 (stereo partly drawn) [Example 87] | 363 nM
35 | Cc1nc(-c2nnn(C)c2Cn2cc(COC(C)(C)C)nn2)ccc1O[C@H]1CCC[C@H](C(=O)O)C1 [Example 88] | 2930 nM
36 | Cc1nc(-c2nnn(C)c2Cn2cc(C3(O)CCCCC3)nn2)ccc1O[C@H]1CCC[C@H](C(=O)O)C1 [Example 89] | 3270 nM
37 | CCCCc1cn(Cc2c(-c3ccc(O[C@H]4CCC[C@H](C(=O)O)C4)c(C#N)n3)nnn2C)nn1 [Example 90] | 78 nM
38 | Cn1nnc(-c2ccc(O[C@H]3CCC[C@H](C(=O)O)C3)c(C#N)n2)c1Cn1cc(Cc2ccccc2)nn1 [Example 91] | 109 nM
39 | Cn1nnc(-c2ccc(O[C@H]3CCC[C@H](C(=O)O)C3)c(C#N)n2)c1Cn1cc(CC2CC2)nn1 [Example 92] | 110 nM
40 | Cn1nnc(-c2ccc(O[C@H]3CCC[C@H](C(=O)O)C3)c(C#N)n2)c1Cn1cc(CC2CCCC2)nn1 [Example 93] | 60 nM
41 | Cn1nnc(-c2ccc(O[C@H]3CCC[C@H](C(=O)O)C3)c(C#N)n2)c1Cn1cc(CC2CCCCC2)nn1 [Example 94] | 54 nM
42 | CCc1nc(-c2nnn(C)c2Cn2cc(Cc3ccccc3)nn2)ccc1O[C@H]1CCC[C@H](C(=O)O)C1 [Example 95] | 7 nM
43 | CCCCc1cn(Cc2c(-c3ccc(O[C@H]4CCC[C@H](C(=O)O)C4)c(CC)n3)nnn2C)nn1 [Example 96] | 9 nM
44 | CCc1nc(-c2nnn(C)c2Cn2cc(CC3CC3)nn2)ccc1O[C@H]1CCC[C@H](C(=O)O)C1 [Example 97] | 8 nM
45 | Cc1sc(NCc2c(-c3ccc(O[C@H]4CCC[C@H](C(=O)O)C4)cn3)nnn2C)nc1-c1ccccn1 [Example 98] | 1050 nM
46 | Cc1nc(-c2nnn(C)c2CNc2nc(C3CCC3)ns2)ccc1O[C@H]1CCC[C@H](C(=O)O)C1 [Example 99] | 73 nM
47 | Cc1nc(-c2nnn(C)c2CNc2nc(C3CCCC3)ns2)ccc1O[C@H]1CCC[C@H](C(=O)O)C1 [Example 100] | 77 nM
48 | Cc1nc(-c2nnn(C)c2CNc2nc(-c3ccccn3)ns2)ccc1O[C@H]1CCC[C@H](C(=O)O)C1 [Example 101] | 483 nM
49 | Cc1nc(-c2nnn(C)c2CNc2nc(CC(C)C)ns2)ccc1O[C@H]1CCC[C@H](C(=O)O)C1 [Example 102] | 98 nM
50 | Cc1nc(-c2nnn(C)c2CNc2nc(C3CC3)ns2)ccc1O[C@H]1CCC[C@H](C(=O)O)C1 [Example 103] | 510 nM
51 | CCCc1nsc(NCc2c(-c3ccc(O[C@H]4CCC[C@H](C(=O)O)C4)c(C)n3)nnn2C)n1 [Example 104] | 109 nM
52 | Cc1nc(-c2nnn(C)c2Cn2nnc(CC3CC3)n2)ccc1O[C@H]1CCC[C@H](C(=O)O)C1 [Example 105, (1 S,3 S)-3-((6-(5-((5-(cyclopropylmethyl)-2H-tetrazol-2-yl)methyl)-1-methyl-1H-1,2,3-triazol-4-yl)-2-methylpyridin-3-yl)oxy)cyclohexane-1-carboxylic acid] | 29 nM
53 | Cc1nc(-c2nnn(C)c2Cn2nnnc2CC2CC2)ccc1O[C@H]1CCC[C@H](C(=O)O)C1 [Example 106, (1S,3S)-3-((6-(5-((5-(cyclopropylmethyl)-1H-tetrazol-1-yl)methyl)-1-methyl-1H-1,2,3-triazol-4-yl)-2-methylpyridin-3-yl)oxy)cyclohexane-1-carboxylic acid] | 147 nM
54 | Cc1nc(-c2nnn(C)c2Cn2nnc(-c3ccccc3)n2)ccc1O[C@H]1CCC[C@H](C(=O)O)C1 [Example 107] | 42 nM
